# Results: US9023831B2, “Methods and compositions of inhibiting complement and cellular activation with Dextran Sulfate” (Novelmed Therapeutics, Inc., priority 2007, dated 2015)
# Values joined by “and” are separate entries in the source; they are usually repeats but may differ in a detail not shown here. Equal entries are not always repeated.
# Key:
# [1] = system: platelets (CD62P staining); assay: Platelet activation (CD62P flow cytometry) after tubing loop; assay type: cell-based, human
# Experimental: It was expected that platelet activation would also be inhibited. […] The inhibition of platelet activation was measured using flow cytometry following CD62P staining of activated platelets.
# It was expected that platelet activation will also be inhibited. […] The inhibition of platelet activation was measured using flow cytometry following CD62P staining of activated platelets.
# While platelets bear C3a receptors, it is not clear how platelets were being activated. In an effort to downregulate platelet activation, we performed an experiment in which Dextran Sulfate was utilized in combination with aspirin. […] These surprising results present Dextran Sulfate as a lead complement inhibitory drug that down regulates both complement and cellular activation in heparinized whole human blood. Shown in FIGS. 10d and 10e are results from this study.
# For CD62P labeling of platelets, 100 μl of diluted blood collected from the circuits were immediately incubated with 20 μl of PE-anti-CD62P antibody (Becton Dickinson) for 20 minutes at room temperature in a polypropylene tube, Then the mixture was treated with FACS Lysing Solution as described above. The microcentrifuge tubes were centrifuged at 12000. g for 5 minutes. The platelets were washed in PBS/BSA 01%, fixed in 1% paraformaldehyde and then analyzed as described above. For double labeling to concomitantly identify the platelet population, 5 μl of FITC-anti-CD61 antibody were added for incubation together with PE-anti-CD62P antibody.
# For flow cytometry measurement, the PMN (containing mainly neutrophils) and platelet populations were identified by live gating based on forward- versus side-scatter parameters and specific staining with FITC-anti-CD15 antibody and FITC-anti-CD61 antibody, respectively. The background staining was gated using isotype-matched labeled antibodies. The intensity of expression of CD11b and CD62P was represented by mean fluorescence intensity (MFI).
# [2] = target: T1, human properdin (or factor P) (Homo sapiens, UniProt P27918); assay: Properdin binding to substrate-bound Dextran Sulfate (ELISA); settings: substrate-bound Dextran Sulfate on microtiter plate; read-out: affinity of properdin binding to Dextran Sulfate (concentration of properdin at 50% maximal binding)
# T1 construct: purchased Advanced Research Technology, San Diego, Calif; A139
# Experimental: The binding of properdin appears to be specific and dose dependent. Leading to an affinity of 4 nM. […] Wells without Dextran Sulfate coating serve as background controls. […] Properdin solution was added to the appropriate wells.
# [3] = system: Thrombin Generation in Citrated Human plasma; assay: Thrombin generation in citrated human plasma (innovin, S2238); assay type: biochemical
# Experimental: FIG. 7 illustrates NM33014 Inhibits Thrombin Generation in Citrated Human plasma: Citrated Human Plasma was mixed with various concentrations of Dextran Sulfate in the presence of constant concentration of S2238 (Diapharma). […] Data was recorded using Soft Max-Pro on Spectramax 190 kinetic spectramax. Data presented is from a representative experiment that was repeated three times.
# Citrated human plasma (100 μl) was mixed with various concentrations of Dextran Sulfate in the presence of constant concentration of S2238 (100 μl of 2 μg/ml).
# [4] = system: arthritic Lewis rats; assay: Joint inflammation and bone destruction in Rat-AIA (CFA-induced arthritis); assay type: in vivo
# Experimental: Lewis male rats were used to examine the effect of Dextran Sulfate combination with aggrastat (molecular weight 40,000 and 5,000) for the treatment of arthritis. Arthritis was induced in adult male Lewis rats (200-225 gm) by an intradermal injection of complete Freund's adjuvant (CFA) at the base of the tail on the dorsal side. The CFA (100 mg dried and heat killed Mycobacterium butyricum (Difco, Detroit, Mich.) emulsified in 10 ml sterile mineral oil) was prepared by grinding the bacteria powder with a mortar and pestle until the bacterial cell wall turned from a light beige to an eggshell white powder. The mineral oil was then slowly mixed into the bacterial cell wall using the mortar and pestle. All animals in each experiment were challenged with the same preparation of adjuvant and nearly 100% of the animals developed arthritis. Dextran Sulfate was obtained from Sigma Aldrich Corp and Aggrastat was purchased from the pharmacy. Dextran Sulfate was dissolved in aggrastat. The drug treatment started on day 10 post-immunization, the time of disease onset, and continued until sacrifice. The dose of Dextran Sulfate was 20 & 10 mg/Kg/per day per 150-200 g rat. The inflammatory response was assesed by the measurement of paw volume. Paw volume appears to be very consistent and gave slow increasing arthritis over time. Paw volumes were measured every day until sacrifice using Plethysmometer (IITC). After the sacrifice/euthanasia, limbs were removed and processed for;
# a) histological evaluations: Only three animals were used per group. Sections were stained with Eosin and hematoxylin to identify various regions within the inflamed limb. Untreated controls have intact cartilage layer and the bone (Score 0) and clear synovium without pannus. Arthritic controls had no defined cartilage bone, and have pannus layer and significant inflammation (Score 5). Enbrel was used as positive control. […] We gave a score of 2.
# b) Paw Swelling: Each paw was measured for water displacement using plethysmometer. Paw volume was measured every day.
# Continuous treatment of Dextran Sulfate therapies from disease onset affected paw swelling in arthritic rats. All adjuvant-challenged rats developed AA between days 10-12. […] While inflammation was decreased in these treatment groups, we observed a greater effect for these drugs in prevention of bone and cartilage destruction.
# [5] = system: C5b-9 Formation in Normal Human Serum; assay: Alternative pathway-dependent C5b-9 (MAC) solid phase ELISA on LPS; assay type: biochemical; settings: 8% NHS, LPS coated wells
# Experimental: Uncoated wells served as background controls.
# Microtiter wells were coated with LPS (2 μg/50 μl per well) in VBS overnight at 4° C. Uncoated wells served as background controls. After aspirating the LPS solution, wells were treated with blocking solution and incubated with various concentrations of normal human serum.
# [6] = system: Complement Activity in Antigen-Induced Arthritic Rabbit; assay: Complement activity in antigen-induced arthritic rabbits (C3c assay); settings: 60 mg/Kg i.v.; for inhibition of complement activation in vivo: ten minutes after treatment, vs vehicle-treated AIA rabbits
# Experimental: METHODS: After the intra-articular ovalbumin injection to induce arthritis, disease pathology developed for seven days prior to the collection of a blood sample to determine complement activation levels and the administration of Dextran Sulfate treatment. Blood samples were drawn prior to all treatments with Dextran Sulfate to establish baseline values and pre-treatment complement activation levels. Dextran Sulfate (60 mg/Kg) was then injected via the marginal vein every day over a 3 day period. Ten minutes after treatment with Dextran Sulfate a second 1-ml blood sample from the ear to assess complement activation shortly after the treatment. Complement activation was assessed using the C3c assay described in methods.
# T1 sequence (P27918 28-469): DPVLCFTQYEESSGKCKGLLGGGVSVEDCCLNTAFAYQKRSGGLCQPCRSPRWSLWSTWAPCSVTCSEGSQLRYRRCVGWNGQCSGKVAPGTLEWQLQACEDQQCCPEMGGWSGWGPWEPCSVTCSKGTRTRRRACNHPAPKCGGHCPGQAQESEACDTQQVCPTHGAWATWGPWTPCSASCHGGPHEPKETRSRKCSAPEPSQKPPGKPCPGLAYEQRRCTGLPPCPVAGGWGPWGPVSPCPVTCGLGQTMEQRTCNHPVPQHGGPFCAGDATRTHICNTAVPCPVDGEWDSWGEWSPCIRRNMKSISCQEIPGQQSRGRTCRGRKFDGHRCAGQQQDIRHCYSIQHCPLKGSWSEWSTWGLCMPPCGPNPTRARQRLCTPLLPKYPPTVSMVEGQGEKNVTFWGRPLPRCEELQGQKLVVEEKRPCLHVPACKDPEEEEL
substance,measurement,setting,value
Dextran Sulfate [NM3014],platelet activation,"[1]; 40 μg/ml, above control levels",activates platelet
same,platelet activation,"[1]; 100 μg/ml, above control levels",activates platelet
same,platelet activation,"[1]; treated samples compared to untreated controls, concentration not stated",increased CD62P staining
same,platelet activation,"[1]; treated samples compared to untreated controls, concentration not stated, listed as Dextran Sulfate",activates platelets
same,Kd,[2],4 nM and ~4 nM
same,effect on coagulation (thrombin generation),[3]; 10 μg/ml,partial effect
same,effect on coagulation (thrombin generation),[3]; 30 μg/ml,inhibit coagulation
same,effect on coagulation (thrombin generation),[3]; 60 μg/ml,inhibit coagulation
same,soft tissue swelling,"[4]; by day 28 post-adjuvant injection, vs vehicle-treated AA rats",significantly decreased
same,"paw swelling (paw volume, plethysmometer)","[4]; with Aggrastat, compared to untreated controls, listed as Dextran Sulfate 40,000 molecular weight",significantly decreased
same,inhibition of C5b-9 (MAC) formation,[5],Inhibits C5b-9 Formation
same,inhibition of C5b-9 (MAC) formation,[5]; listed as Dextran Sulfate,completely prevented
same,inhibition of AP activity in vivo,[6]; 24 hour later,no inhibition
same,inhibition of complement activation in vivo,[6],complete inhibition
same,inhibition of complement activation in vivo,[6]; listed as Dextran Sulfate,completely blocked
